# Test results reported in patent US12226386B2, “Compositions and methods for treating biofilms” (The Regents of the University of California, priority 2018, dated 2025).
# Tested on: fungal biofilms (C. albicans)
# Assay: biofilm assays (sustained inhibition and/or disruption), fungal
# Assay type: cell-based, Candida albicans
# Conditions: Tables 4 and 5
# Description: Other amino acids in the blood of animals could combat bacterial and fungal biofilm and therefore may be useful in treating these bacterial and fungal infections that would lie on the external surfaces of infected animals such as humans and could also be used to combat these pathogens on instruments and surfaces that need to be treated. Two types of biofilm assays were performed: a sustained inhibition assay and a disruption assay. The sustained inhibition assay assessed the compound's ability to prevent biofilm development throughout all stages of biofilm formation, while the disruption assay assessed the compound's ability to break up an existing mature biofilm. For fungal biofilm assays, all solutions were prepared in RPMI 1640 medium. All bacterial biofilm solutions were prepared in Tryptic Soy Broth (TSB), supplemented with 1% glucose (henceforth referred to as TSB-G). All subsequent procedures were performed in a manner that maintained sterility. […] Amino acids were also tested in combinations. Compound solutions were homogenized with gentle agitation in the dark (4° C., 24 hours) before use. Fungal strains were streaked on Yeast Peptone Dextrose (YPD) agar plates and incubated at 30° C. for 48 hours. A single colony from each strain to be tested was inoculated into YPD broth and grown for 12 hours, at 30° C., shaking at 225 rpm. For the fungal biofilm inhibition assay, 1 μl of saturated overnight cell culture was added to either 80 μL of RPMI-1640 or RPMI-1640 supplemented with the amino acid compound solution to be tested, in a 384-well plate. The cells were allowed to adhere to the plate for 90 minutes at 37° C. shaking at 350 rpm. Loosely bound cells were washed once with phosphate buffered saline (PBS) and 80 μl of RPMI-1640, or RPMI-1640 supplemented with the amino acid compound solution was added to the plate. The plate was further incubated for 24 hours at 37° C. shaking at 350 rpm. Media was carefully aspirated and the biofilm was measured by optical density at 600 nm. Twelve replicates were performed for each tested condition and the reported values are normalized to the control (RPMI-1640 media only). For the fungal biofilm disruption assays, 80 μL of RPMI-1640 was added to the plate, along with 1 μL of overnight cell culture. The cells were allowed to adhere to the plate for 90 minutes at 37° C. shaking at 350 rpm. Loosely bound cells were washed once with PBS and 80 μL of RPMI-1640 was added to the plate. The plate was further incubated for 24 hours at 37° C. shaking at 350 rpm. Media was carefully aspirated from the mature biofilm and 80 μL of RPMI-1640, or RPMI-1640 supplemented with the amino acid compound solution to be tested, was gently added to the plate. The plate was further incubated for 24 hours at 37° C. shaking at 350 rpm. Media was carefully aspirated and the biofilm was measured by optical density at 600 nm. Twelve replicates were performed for each tested condition and the reported values are normalized to the control (RPMI-1640 media only).
row,Compound,effect on C. albicans biofilms in inhibition and disruption assays
1,"N[C@@H](CC(=O)O)C(=O)O [Aspartic Acid, L-aspartic acid]",both inhibited and disrupted
2,"N[C@@H](CS)C(=O)O [Cysteine, L-cysteine]",both inhibited and disrupted
3,"N[C@@H](CCC(=O)O)C(=O)O [Glutamic Acid, L-glutamic acid]",both inhibited and disrupted

# Tested on: bacterial biofilms (MRSA)
# Assay: biofilm assays (sustained inhibition and/or disruption), bacterial
# Assay type: cell-based, Staphylococcus aureus
# Conditions: Tables 4 and 5
# Description: Other amino acids in the blood of animals could combat bacterial and fungal biofilm and therefore may be useful in treating these bacterial and fungal infections that would lie on the external surfaces of infected animals such as humans and could also be used to combat these pathogens on instruments and surfaces that need to be treated. Two types of biofilm assays were performed: a sustained inhibition assay and a disruption assay. The sustained inhibition assay assessed the compound's ability to prevent biofilm development throughout all stages of biofilm formation, while the disruption assay assessed the compound's ability to break up an existing mature biofilm.
# (§1) For fungal biofilm assays, all solutions were prepared in RPMI 1640 medium. All bacterial biofilm solutions were prepared in Tryptic Soy Broth (TSB), supplemented with 1% glucose (henceforth referred to as TSB-G). All subsequent procedures were performed in a manner that maintained sterility. A solution of each amino acid to be tested was prepared in weight to volume concentrations ranging from 0.1-5.0%. Amino acids were also tested in combinations. Compound solutions were homogenized with gentle agitation in the dark (4° C., 24 hours) before use.
# Bacterial strains were streaked on Blood Agar plates (5% sheep blood in Tryptic Soy Agar) and incubated at 37° C. for 24 hours. A single colony from each strain to be tested was inoculated in a TSB broth and grown for 12 hours, at 37° C. shaking at 225 rpm. For the bacterial biofilm inhibition assays, 1 μL of saturated overnight cell culture was added to either 80 μL of TSB-G, or TSB-G supplemented with the amino acid compound solution to be tested, in a 384-well plate. The cells were allowed to adhere to the plate for 60 minutes at 37° C. without shaking. The media was carefully aspirated and 80 μL of TSB-G, or TSB-G supplemented with the amino acid compound solution was added to the plate. The plate was further incubated for 24 hours at 37° C. without shaking. Media was carefully aspirated and the biofilm was measured by optical density at 600 nm. Eight or twelve replicates were performed for each tested condition and the reported values are normalized to the control (TSB-G media only). For the bacterial biofilm disruption assays, 80 μL of TSB-G was added to the plate, along with 1 μL of overnight cell culture. The cells were allowed to adhere to the plate for 60 minutes at 37° C. with no shaking. The media was carefully aspirated and 80 μL of TSB-G was added to the plate. The plate was further incubated for 24 hours at 37° C. with no shaking. Media was carefully aspirated from the mature biofilm and 80 μL of TSB-G, or TSB-G supplemented with the amino acid to be tested, was gently added to the plate. The plate was further incubated for 24 hours at 37° C. without shaking. Media was aspirated and the biofilm was measured by optical density at 600 nm. Twelve replicates were performed for each tested condition and the reported values are normalized to the control (TSB-G media only).
row,Compound,effect on MRSA biofilms in inhibition and disruption assays
1,"N[C@@H](CC(=O)O)C(=O)O [Aspartic Acid, L-aspartic acid]",both inhibited and disrupted
2,"N[C@@H](CS)C(=O)O [Cysteine, L-cysteine]",both inhibited and disrupted
3,"N[C@@H](CCC(=O)O)C(=O)O [Glutamic Acid, L-glutamic acid]",both inhibited and disrupted

# Tested on: C. albicans biofilms
# Assay: in vitro sustained inhibition biofilm assay, fungal
# Assay type: cell-based, Candida albicans
# Conditions: 1% amino acid, p<0.001
# Description: Two types of biofilm assays were performed: a sustained inhibition assay and a disruption assay.
# as §1
# Fungal strains were streaked on Yeast Peptone Dextrose (YPD) agar plates and incubated at 30° C. for 48 hours. A single colony from each strain to be tested was inoculated into YPD broth and grown for 12 hours, at 30° C., shaking at 225 rpm. For the fungal biofilm inhibition assay, 1 μl of saturated overnight cell culture was added to either 80 μL of RPMI-1640 or RPMI-1640 supplemented with the amino acid compound solution to be tested, in a 384-well plate. […] Media was carefully aspirated and the biofilm was measured by optical density at 600 nm. Twelve replicates were performed for each tested condition and the reported values are normalized to the control (RPMI-1640 media only). For the fungal biofilm disruption assays, 80 μL of RPMI-1640 was added to the plate, along with 1 μL of overnight cell culture. […] Loosely bound cells were washed once with PBS and 80 μL of RPMI-1640 was added to the plate. […] Media was carefully aspirated from the mature biofilm and 80 μL of RPMI-1640, or RPMI-1640 supplemented with the amino acid compound solution to be tested, was gently added to the plate. […] Media was carefully aspirated and the biofilm was measured by optical density at 600 nm. Twelve replicates were performed for each tested condition and the reported values are normalized to the control (RPMI-1640 media only).
# The plate was further incubated for 24 hours at 37° C. with shaking (350 rpm). Media was carefully aspirated and the biofilm was measured by optical density at 600 nm.
row,Compound,Reduce F Biofilm
1,"N[C@@H](CC(=O)O)C(=O)O [Aspartic Acid, L-aspartic acid]",●● (two dots [i.e. ●●] signifies major effect (greater than about 30% change))
2,"N[C@@H](CS)C(=O)O [Cysteine, L-cysteine]",●● (two dots [i.e. ●●] signifies major effect (greater than about 30% change))
3,"N[C@@H](CCC(=O)O)C(=O)O [Glutamic Acid, L-glutamic acid]",●● (two dots [i.e. ●●] signifies major effect (greater than about 30% change))
